Structures can show the parent of a compound that is named as a salt.
Experiments:
PC-3 cells = assay: Proliferation inhibition assay, PC-3; assay type: cell-based
Protocol: (§1) Cell Culture. LS174T (colon cancer cells), PC-3 (prostate cancer cells), MCF-7 (beast) and A549 (lung) were cultured in the medium recommended by American Type Culture Collection at 37° C. with 5% CO2 atmosphere in a water jacketed incubator. Ovcar-8 and NCI/ADR-RES are gifts from Dr. Markos Leggas. Alpha-tubulin antibodies, TRITC-conjugated anti-rabbit antibody.
(§2) Proliferation inhibition assay. Cancer cells were seeded into 24-well plates at a density of 20,000 cells per well in 1 mL of culture medium and cultured overnight at 37° C. Compounds and the vehicle control DMSO were added to the cells. After 6 days, medium was removed and 100 μL of trypsin was added. Then the cells resuspended in pbs were counted by Vi-CELL XR 2.03 (Beckman Coulter, Inc. USA). The ratio R of the number of viable cells in the compound treatment group to the number of viable cells in DMSO treatment group was taken as relative growth, and the percentage growth inhibition was calculated as: (1−R)*100. For initial testing, compounds were added to the cells at a final concentration 10 μM. Active compounds at 10 μM would be tested at lower concentrations.

LS174T cells = assay: Proliferation inhibition assay, LS174T; assay type: cell-based; conditions: for inhibition at 1 µM / inhibition at 10 µM / inhibition at 0.3 µM: Homo sapiens, LS174T; for inhibition at 0.3 µM: 300 nM
Protocol: as §1, §2

[1] = Homo sapiens, PC-3, 1 μM, Table 1
[2] = Homo sapiens, PC-3, 10 μM, Table 1
[3] = Homo sapiens, PC-3, 10 μM, Table 2
[4] = Homo sapiens, PC-3, 1 μM, Table 2
[5] = Homo sapiens, PC-3, 300 nM, Table 2

## CN1CCN(c2ccc(/C=C3\Oc4cc(O)ccc4C3=O)cc2)CC1 (as salt: hydrochloride)
other
  melting point: > 220 °C

## O=C1/C(=C/c2ccc(N3CCCC3)cc2)Oc2cc(O)ccc21 [Aurone 2a, (2Z)-6-Hydroxy-2-(4-pyrrolidin-1-ylbenzylidene)-1-benzofuran-3(2H)-one]
other
  melting point: > 220 °C

## O=C1/C(=C/c2ccc(N3CCCC3)cc2)Oc2cc(O)ccc21 [Aurone 2a]
PC-3 cells; [1]
  inhibition at 1 µM: 2.1 ± 7.1%
PC-3 cells; [2]
  inhibition at 10 µM: 95 ± 4.7%
LS174T cells; 1 μM, Table 1
  inhibition at 1 µM: 0%
LS174T cells; 10 μM, Table 1
  inhibition at 10 µM: 23 ± 2.9%

## O=C1/C(=C/c2ccc(N3CCOCC3)cc2)Oc2cc(O)ccc21 [Aurone 2b, (2Z)-6-Hydroxy-2-(4-morpholin-4-ylbenzylidene)-1-benzofuran-3(2H)-one]
other
  melting point: > 220 °C

## O=C1/C(=C/c2ccc(N3CCOCC3)cc2)Oc2cc(O)ccc21 [Aurone 2b]
PC-3 cells; [2]
  inhibition at 10 µM: 7.8 ± 7.7%
LS174T cells; 10 μM, Table 1
  inhibition at 10 µM: 0%

## O=C1/C(=C/c2ccc(N3CCSCC3)cc2)Oc2cc(O)ccc21 [Aurone 2d, (2Z)-6-Hydroxy-2-[(4-thiomorpholin-4-ylbenzylidene)]-1-benzofuran-3(2H)-one]
other
  melting point: > 220 °C

## CN(C)c1ccc(/C=C2\Oc3cc(O)ccc3C2=O)c(Cl)c1 [Aurone 2e, (2Z)-2-[2-Chloro-4-(dimethylamino)benzylidene]-6-hydroxy-1-benzofuran-3(2H)-one]
other
  melting point: > 220 °C

## CCN(CC)c1ccc(/C=C2\Oc3cc(O)ccc3C2=O)c(OC)c1 [Aurone 2f, (2Z)-2-[4-(Diethylamino)-2-methoxybenzylidene]-6-hydroxy-1-benzofuran-3(2H)-one]
other
  melting point: > 220 °C

## O=C1/C(=C/c2ccccn2)Oc2cc(O)ccc21 [Aurone 3a, (2Z)-6-Hydroxy-2-(pyridin-2-ylmethylene)-1-benzofuran-3(2H)-one]
other
  melting point: 246 to 248 °C

## O=C1/C(=C/c2ccccn2)Oc2cc(O)ccc21 [Aurone 3a]
PC-3 cells; [2]
  inhibition at 10 µM: 8.8 ± 15%
LS174T cells; 10 μM, Table 1
  inhibition at 10 µM: 0%

## O=C1/C(=C/c2cccnc2)Oc2cc(O)ccc21 [Aurone 3b, (2Z)-6-Hydroxy-2-(pyridin-3-ylmethylene)-1-benzofuran-3(2H)-one]
other
  melting point: 255 to 257 °C

## O=C1/C(=C/c2cccnc2)Oc2cc(O)ccc21 [Aurone 3b]
PC-3 cells; [2]
  inhibition at 10 µM: 0%
LS174T cells; 10 μM, Table 1
  inhibition at 10 µM: 11 ± 3.6%

## O=C1/C(=C/c2nccc3ccccc23)Oc2cc(O)ccc21 [Aurone 3d, (2Z)-6-Hydroxy-2-(isoquinolin-1-ylmethylene)-1-benzofuran-3(2H)-one]
other
  melting point: > 220 °C

## O=C1/C(=C/c2nccc3ccccc23)Oc2cc(O)ccc21 [Aurone 3d]
PC-3 cells; [2]
  inhibition at 10 µM: 88 ± 5.5%
LS174T cells; 1 μM, Table 1
  inhibition at 1 µM: 2.7 ± 6.4%
LS174T cells; 10 μM, Table 1
  inhibition at 10 µM: 79 ± 3.6%

## O=C1/C(=C/c2ccc3ccccc3n2)Oc2cc(O)ccc21 [Aurone 3e, (2Z)-6-Hydroxy-2-(quinolin-2-ylmethylene)-1-benzofuran-3(2H)-one]
other
  melting point: 249 to 251 °C

## O=C1/C(=C/c2ccc3ccccc3n2)Oc2cc(O)ccc21 [Aurone 3e]
PC-3 cells; [1]
  inhibition at 1 µM: 26 ± 8.6%
PC-3 cells; [2]
  inhibition at 10 µM: 99 ± 0.2%
LS174T cells; 1 μM, Table 1
  inhibition at 1 µM: 7.7 ± 9.9%
LS174T cells; 10 μM, Table 1
  inhibition at 10 µM: 96 ± 0.9%

## COc1ccc2nc(/C=C3\Oc4cc(O)ccc4C3=O)ccc2c1 [Aurone 3f, (2Z)-6-Hydroxy-2-[(6-methoxyquinolin-2-yl)methylene]-1-benzofuran-3(2H)-one]
other
  melting point: 269 to 271 °C

## COc1ccc2nc(/C=C3\Oc4cc(O)ccc4C3=O)ccc2c1 [Aurone 3f]
PC-3 cells; [2]
  inhibition at 10 µM: 8.4 ± 33%
LS174T cells; 10 μM, Table 1
  inhibition at 10 µM: 6.1 ± 13%

## COc1cccc2ccc(/C=C3\Oc4cc(O)ccc4C3=O)nc12 [Aurone 3g, (2Z)-6-Hydroxy-2-[(8-methoxyquinolin-2-yl)methylene]-1-benzofuran-3(2H)-one]
other
  melting point: 250 to 252 °C

## COc1cccc2ccc(/C=C3\Oc4cc(O)ccc4C3=O)nc12 [Aurone 3g]
PC-3 cells; [1]
  inhibition at 1 µM: 40 ± 8.4%
PC-3 cells; [2]
  inhibition at 10 µM: 97 ± 0.8%
LS174T cells; 1 μM, Table 1
  inhibition at 1 µM: 20 ± 9.1%
LS174T cells; 10 μM, Table 1
  inhibition at 10 µM: 91 ± 2.4%

## O=C1/C(=C/c2ccnc3ccccc23)Oc2cc(O)ccc21 [Aurone 3h, (2Z)-6-Hydroxy-2-(quinolin-4-ylmethylene)-1-benzofuran-3(2H)-one]
other
  melting point: 278 to 280 °C

## O=C1/C(=C/c2ccnc3ccccc23)Oc2cc(O)ccc21 [Aurone 3h]
PC-3 cells; [1]
  inhibition at 1 µM: 16 ± 3.5%
PC-3 cells; [2]
  inhibition at 10 µM: 63 ± 7.2%
LS174T cells; 10 μM, Table 1
  inhibition at 10 µM: 34 ± 11%

## O=C1/C(=C/c2c[nH]c3ccccc23)Oc2cc(O)ccc21 [Aurone 3i, (2Z)-6-Hydroxy-2-(1H-indol-3-ylmethylene)-1-benzofuran-3(2H)-one]
other
  melting point: 280 to 282 °C

## O=C1/C(=C/c2c[nH]c3ccccc23)Oc2cc(O)ccc21 [Aurone 3i]
PC-3 cells; [2]
  inhibition at 10 µM: 20 ± 6.8%
LS174T cells; 10 μM, Table 1
  inhibition at 10 µM: 44 ± 8.6%

## Cn1cc(/C=C2\Oc3cc(O)ccc3C2=O)c2ccccc21 [Aurone 3j, (2Z)-6-Hydroxy-2-[(1-methyl-1H-indol-3-yl)methylene]-1-benzofuran-3(2H)-one]
other
  melting point: 272 to 274 °C

## Cn1cc(/C=C2\Oc3cc(O)ccc3C2=O)c2ccccc21 [Aurone 3j]
PC-3 cells; [2]
  inhibition at 10 µM: 41 ± 25%
LS174T cells; 10 μM, Table 1
  inhibition at 10 µM: 54 ± 15%

## COc1ccc2c(c1)c(/C=C1\Oc3cc(O)ccc3C1=O)cn2C [Aurone 3k, (2Z)-6-Hydroxy-2-[(5-methoxy-1-methyl-1H-indol-3-yl)methylene]-1-benzofuran-3(2H)-one]
other
  melting point: 301 to 303 °C

## COc1ccc2c(c1)c(/C=C1\Oc3cc(O)ccc3C1=O)cn2C [Aurone 3k]
PC-3 cells; [1]
  inhibition at 1 µM: 17 ± 5.5%
PC-3 cells; [2]
  inhibition at 10 µM: 35 ± 28%
LS174T cells; 1 μM, Table 1
  inhibition at 1 µM: 13 ± 2.4%
LS174T cells; 10 μM, Table 1
  inhibition at 10 µM: 63 ± 0.7%

## CCn1cc(/C=C2\Oc3cc(O)ccc3C2=O)c2cc(OC)ccc21 [Aurone 3l, (2Z)-2-[(1-Ethyl-5-methoxy-1H-indol-3-yl)methylene]-6-hydroxy-1-benzofuran-3(2H)-one]
other
  melting point: 265 to 267 °C

## CCn1cc(/C=C2\Oc3cc(O)ccc3C2=O)c2cc(OC)ccc21 [Aurone 3l]
PC-3 cells; [1]
  inhibition at 1 µM: 13 ± 9.5%
PC-3 cells; [2]
  inhibition at 10 µM: 69 ± 16%
LS174T cells; 1 μM, Table 1
  inhibition at 1 µM: 4.5 ± 7.3%
LS174T cells; 10 μM, Table 1
  inhibition at 10 µM: 83 ± 1.2%

## CCn1cc(/C=C2\Oc3cc(O)ccc3C2=O)c2ccccc21 [Aurone 3m, (2Z)-2-[(1-Ethyl-1H-indol-3-yl)methylene]-6-hydroxy-1-benzofuran-3(2H)-one]
other
  melting point: 278 to 280 °C

## Cc1c(O)ccc2c1O/C(=C\c1cn(C)c3ccccc13)C2=O [Aurone 3n, (2Z)-6-Hydroxy-7-methyl-2-[(1-methyl-1H-indol-3-yl)methylene]-1-benzofuran-3(2H)-one]
other
  melting point: 293 to 295 °C

## COc1ccc2c(c1)c(/C=C1\Oc3c(ccc(O)c3C)C1=O)cn2C [Aurone 3o, (2Z)-6-Hydroxy-2-[(5-methoxy-1-methyl-1H-indol-3-yl)methylene]-7-methyl-1-benzofuran-3(2H)-one]
other
  melting point: 297 to 299 °C

## CCn1cc(/C=C2\Oc3cc(OCC#N)ccc3C2=O)c2cc(O)ccc21 [Aurone 4b]
PC-3 cells; 300 nM, Table 2
  Inhibition of PC-3 Cells 300 nM: 24 ± 11%
PC-3 cells; 1 μM, Table 2
  Inhibition of PC-3 Cells 1 μM: 96 ± 2%
PC-3 cells; 10 μM, Table 2
  Inhibition of PC-3 Cells 10 μM: 96 ± 1.6%
LS174T cells; 1 μM, Table 2
  Inhibition of LS174T Cells 1 μM: 26 ± 15%
LS174T cells; 10 μM, Table 2
  Inhibition of LS174T Cells 10 μM: 83 ± 4.8%

## Cn1cc(/C=C2\Oc3cc(OCc4ccccc4F)ccc3C2=O)c2ccccc21 [Aurone 4d]
PC-3 cells; [3]
  inhibition at 10 µM: 0%
LS174T cells; 10 μM, Table 2
  inhibition at 10 µM: 7.1 ± 17%

## Cn1cc(/C=C2\Oc3cc(OCc4ccccc4Cl)ccc3C2=O)c2ccccc21 [Aurone 4e]
PC-3 cells; [3]
  inhibition at 10 µM: 20 ± 6.6%
LS174T cells; 10 μM, Table 2
  inhibition at 10 µM: 0%

## Cn1cc(/C=C2\Oc3cc(OCc4c(F)cccc4F)ccc3C2=O)c2ccccc21 [Aurone 4f]
PC-3 cells; [3]
  inhibition at 10 µM: 82 ± 4.3%
LS174T cells; 10 μM, Table 2
  inhibition at 10 µM: 0.5 ± 1.7%

## Cn1cc(/C=C2\Oc3cc(OCc4c(F)cccc4Cl)ccc3C2=O)c2ccccc21 [Aurone 4h]
PC-3 cells; [4]
  inhibition at 1 µM: 0%
PC-3 cells; [3]
  inhibition at 10 µM: 31 ± 40%
LS174T cells; 10 μM, Table 2
  inhibition at 10 µM: 38 ± 2%

## COc1ccc2c(c1)c(/C=C1\Oc3cc(OCc4c(F)cccc4Cl)ccc3C1=O)cn2C [Aurone 4k]
PC-3 cells; [3]
  inhibition at 10 µM: 57 ± 18%
LS174T cells; 10 μM, Table 2
  inhibition at 10 µM: 53 ± 8.9%

## CCn1cc(/C=C2\Oc3cc(OCc4ccccc4F)ccc3C2=O)c2cc(OC)ccc21 [Aurone 4n]
PC-3 cells; [4]
  inhibition at 1 µM: 28 ± 15%
PC-3 cells; [3]
  inhibition at 10 µM: 52 ± 23%
LS174T cells; 1 μM, Table 2
  inhibition at 1 µM: 0%
LS174T cells; 10 μM, Table 2
  inhibition at 10 µM: 28 ± 11%

## CCn1cc(/C=C2\Oc3cc(OCc4c(Cl)cccc4Cl)ccc3C2=O)c2cc(OC)ccc21 [Aurone 4o]
PC-3 cells; [5]
  inhibition at 0.3 µM: 3.9 ± 11%
PC-3 cells; [4]
  inhibition at 1 µM: 67 ± 5.8%
PC-3 cells; [3]
  inhibition at 10 µM: 96 ± 1.1%
LS174T cells; Table 2
  inhibition at 0.3 µM: 3.3 ± 24%
LS174T cells; 1 μM, Table 2
  inhibition at 1 µM: 7.3 ± 18%
LS174T cells; 10 μM, Table 2
  inhibition at 10 µM: 94 ± 1.7%

## CCn1cc(/C=C2\Oc3cc(OCc4c(F)cccc4Cl)ccc3C2=O)c2ccccc21 [Aurone 4p]
PC-3 cells; [5]
  inhibition at 0.3 µM: 44 ± 5.6%
PC-3 cells; [4]
  inhibition at 1 µM: 91 ± 2.2%
PC-3 cells; [3]
  inhibition at 10 µM: 95 ± 4.4%
LS174T cells; 1 μM, Table 2
  inhibition at 1 µM: 5.1 ± 19%
LS174T cells; 10 μM, Table 2
  inhibition at 10 µM: 93 ± 3.2%

## CCn1cc(/C=C2\Oc3cc(OCc4c(Cl)cccc4Cl)ccc3C2=O)c2ccccc21 [Aurone 4q]
PC-3 cells; Homo sapiens, PC-3, 100 nM, Table 2
  inhibition at 0.1 µM: 17 ± 6.8%
PC-3 cells; [5]
  inhibition at 0.3 µM: 75 ± 7.7%
PC-3 cells; [4]
  inhibition at 1 µM: 98 ± 1%
PC-3 cells; [3]
  inhibition at 10 µM: 97 ± 0.6%
LS174T cells; Table 2
  inhibition at 0.3 µM: 0%
LS174T cells; 1 μM, Table 2
  inhibition at 1 µM: 93 ± 2.5%
LS174T cells; 10 μM, Table 2
  inhibition at 10 µM: 96%

Reference: patent US20200354348A1, “SEMISYNTHETIC AURONES AND METHODS OF USE THEREOF” (University of Kentucky Research Foundation, priority 2018, published 2020)
